In patent US9084817B2, “Oral preparation comprising specific organic acid, and method for improvement in elution property and chemical stability of oral preparation” (TORAY INDUSTRIES, INC., priority 2007, dated 2015):

Assay: Water required to dissolve 1 g of organic acid at 20° C. (Japanese Pharmacopoeia solubility)
Type: physicochemical
Experimental: The organic acid 1 g of which requires not less than 30 mL of water to dissolve in at 20° C. refers to such an organic acid that 30 mL or more of water is required to dissolve 1 g of the organic acid within 30 minutes at 20±5° C. by vigorous shaking for 30 seconds each time at 5-minute intervals, in accordance with the description about solubility in the Japanese Pharmacopoeia, 15th Edition, General Notices, page A-13.

Structure (SMILES): O=C(O)/C=C/C(=O)O [Fumaric acid]
- Water required to dissolve 1 g of organic acid in at 20° C.: ≥ 100 mL
